In US20120101110A1, “Diaza-spiro[5.5]undecanes” (priority 2010, published 2012):
pKd, pKi: −log10 of the molar value. Like-named read-outs stand apart in the source and are kept apart here.

Assays:
human orexin 1 receptors [1] = biological target: T1, human orexin 1 receptors (Homo sapiens, UniProt O43613); test: Calcium accumulation in cells (FLIPR), hOx1R
T1 sequence (O43613 1-425): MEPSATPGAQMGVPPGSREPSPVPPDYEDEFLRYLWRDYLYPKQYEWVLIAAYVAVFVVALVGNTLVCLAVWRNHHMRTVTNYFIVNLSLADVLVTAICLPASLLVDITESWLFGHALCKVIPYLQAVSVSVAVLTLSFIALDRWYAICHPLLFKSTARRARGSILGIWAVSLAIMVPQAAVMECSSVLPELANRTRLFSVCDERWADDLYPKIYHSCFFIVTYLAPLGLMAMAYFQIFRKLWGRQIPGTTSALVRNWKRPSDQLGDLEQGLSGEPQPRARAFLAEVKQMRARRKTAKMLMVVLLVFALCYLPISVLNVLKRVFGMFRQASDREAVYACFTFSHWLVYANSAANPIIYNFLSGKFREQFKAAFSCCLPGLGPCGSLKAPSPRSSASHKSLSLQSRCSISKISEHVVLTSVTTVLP
Description: (§4) Cells expressing human orexin 1 or human orexin 2 receptors, were seeded at 8,000 cells/well in 384 well black-walled clear bottom, poly-D-lysine coated plates. After 24 h, the medium was removed and cells were washed once with phosphate buffered saline and serum-deprived overnight in assay buffer (130 mM NaCl, 5.4 mM KCl, 1.8 mM CaCl2, 0.8 mM MgSO4, 0.9 mM NaH2PO4, 25 mM glucose, 20 mM HEPES, pH 7.4) containing bovine serum albumin (1% w/v).
On the day of the experiment, the cells seeded in black plates were treated with assay buffer containing the Ca^2+sensitive fluorescent dye Fluo-4-AM (2 μM), and probenecid (0.1 mM). After 1 h plates were washed twice with, and resuspended in, assay buffer containing probenecid (0.1 mM) using a multi plate washer. The plates were placed into a FLIPR II (Fluorometric Imaging Plate Reader, Molecular Devices, Sunnyvale, Calif., USA) and baseline fluorescence (fluorescence light units, FLU) was measured (5 measurements, 2 S each; laser excitation 488 nm at 0.6-1 W, CCD camera exposure 0.4 s) before addition of buffer alone (basal) or containing test compounds (either compound of formula I alone, agonist alone or agonist in the presence of various concentrations of compounds of formula I). Fluorescence measurements were then continued every 1 S for 120 S followed by every 4 S for 240 S.
(§5) Compounds of formula I were tested usually in a concentration range from 10^−9 M to 10^−5 M. In the second round, performed one hour later (to allow for equilibration), Orexin A was tested either in the absence (calibration curves, Orexin A agonist controls) or in the presence of compounds of formula I to determine antagonism.
Inhibition data is expressed in Table 2 as Ki [μM], converted by the Cheng and Prusoff correction (Ki=IC50/1+(L/EC50)), where IC50 is the 50% inhibition value determined in concentration response inhibition curves, EC50 is the half maximal activation concentration determined for orexin A in concentration response curves and L is the concentration of orexin A used in inhibition experiments performed in with a submaximal concentration of orexin A in the presence of up to 8 increasing concentrations of compound of formula I. Inhibition data is also expressed in Table 2 as % inhibition value measured at a concentration of 10 μM of selected compounds of formula I.

human orexin 2 receptors [2] = biological target: T2, human orexin 2 receptors (Homo sapiens, UniProt O43614); test: Calcium accumulation in cells (FLIPR), hOx2R; assay type: cell-based; details: cells expressing human orexin 2 receptor; inhibition of orexin A-induced calcium accumulation; Cheng and Prusoff correction
T2 sequence (O43614 1-444): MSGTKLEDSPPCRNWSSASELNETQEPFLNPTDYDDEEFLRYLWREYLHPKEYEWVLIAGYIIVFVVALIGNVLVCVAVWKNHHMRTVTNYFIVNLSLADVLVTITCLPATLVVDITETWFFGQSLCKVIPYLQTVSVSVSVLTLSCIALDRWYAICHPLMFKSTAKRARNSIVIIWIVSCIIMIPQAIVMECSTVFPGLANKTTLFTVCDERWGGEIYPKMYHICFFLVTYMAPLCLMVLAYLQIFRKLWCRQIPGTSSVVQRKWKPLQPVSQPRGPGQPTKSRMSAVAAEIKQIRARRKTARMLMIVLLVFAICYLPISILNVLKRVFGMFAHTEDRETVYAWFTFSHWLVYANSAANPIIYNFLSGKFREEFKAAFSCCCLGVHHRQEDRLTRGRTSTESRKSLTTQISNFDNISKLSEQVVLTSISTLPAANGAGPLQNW
Description: as §4
On the day of the experiment, the cells seeded in black plates were treated with assay buffer containing the Ca^2+sensitive fluorescent dye Fluo-4-AM (2 μM), and probenecid (0.1 mM). After 1 h plates were washed twice with, and resuspended in, assay buffer containing probenecid (0.1 mM) using a multi plate washer. […] Fluorescence measurements were then continued every 1 S for 120 S followed by every 4 S for 240 S.
The measurements were typically made in two sequences:
as §5

human orexin 1 receptors [3] = biological target: T1, human orexin 1 receptors; test: Radioligand binding assay ([3H]-SB649868 competition), hOx1R; details: competition with about 1 nM [3H]-SB649868; CHO or HEK cell membranes expressing human orexin 1 receptor
Description: (§1) The cell pellet was either stored at −80° C. or used directly. Before the experiments, cell membranes were re-suspended in binding assay buffer (10 mM HEPES, 0.5% (w/v) bovine serum albumin, pH 7.5) by homogenisation with a Polytron homogeniser at 50 Hz for 20 s. Cell membranes were also used as made available by commercial providers.
(§2) Bound radioactivity was measured, and data were analysed with the program XLFIT or Graphpad Prism. Protein concentration was determined according to the Bradford/BioRad Protein Assay Kit.
(§3) In competition experiments, cell homogenates (150 μl) were incubated in assay buffer (10 mM HEPES, pH 7.5, 0.5% (w/v) bovine serum albumin, 5 mM MgCl2, 1 mMCaCl2, and tween 0.05%) for 1 h at room temperature with about 1 nM of the radioligand [^3H]-SB649868, 66 Ci/mmole, 50 μl), and with various concentrations of compounds of the invention (50 μl) in triplicates; non-specific binding was determined in the presence of almorexant (10 μM). Reactions were terminated by vacuum filtration, 3 washes of ice cold wash buffer (Tris-HCl pH 7.4/10 mM, with NaCl 154 mM). Competition data is expressed in Table 2 as Kd [μM].

human orexin 2 receptors [4] = biological target: T2, human orexin 2 receptors; test: Radioligand binding assay ([3H]-SB649868 competition), hOx2R
Description: as §1, §2
as §3, with “μM).” for “μM). Reactions were terminated by vacuum filtration, 3 washes of ice cold wash buffer (Tris-HCl pH 7.4/10 mM, with NaCl 154 mM). Competition data is expressed in Table 2 as Kd [μM].”

[5] = competition with about 1 nM [3H]-SB649868, CHO or HEK cell membranes expressing human orexin 2 receptor, read-out: binding hOx2R Kd

Row | Compound | pKi (human orexin 1 receptors [1]) | pKi (human orexin 2 receptors [2]) | pKd (human orexin 1 receptors [3]) | pKd (human orexin 2 receptors [4]; [5]) | inhibition at 10 µM (human orexin 1 receptors [1]; read-out: FLIPR hOx1R % inhibition value) | pKd (human orexin 2 receptors [4])
1 | Cc1ccc2[nH]cc(CN3CCCC4(CCN(c5nc(C)cc(C)n5)CC4)C3=O)c2c1 [Example 104, 9-(4,6-dimethylpyrimidin-2-yl)-2-((5-methyl-1H-indol-3-yl)methyl)-2,9-diazaspiro[5.5]undecan-1-one] | 6.53 | 8.32 | 5.99 | 7.60 | – | –
2 | Cc1cc(C)nc(N2CCC3(CCCN(Cc4nc(C)oc4-c4ccccc4)C3=O)CC2)n1 [Example 108, 9-(4,6-dimethylpyrimidin-2-yl)-2-((2-methyl-5-phenyloxazol-4-yl)methyl)-2,9-diazaspiro[5.5]undecan-1-one] | 6.29 | 7.74 | 6.07 | 7.14 | – | –
3 | Cc1ccnc(N2CCC3(CCCC(=O)N3Cc3cccc4[nH]c(C)cc34)CC2)n1 [Example 96, 1-((2-methyl-1H-indol-4-yl)methyl)-9-(4-methylpyrimidin-2-yl)-1,9-diazaspiro[5.5]undecan-2-one] | 6.06 | 7.74 | 5.71 | 7.05 | – | –
4 | Cc1cc(C)nc(N2CCC3(CCCN(Cc4cccc(-c5noc(C)n5)c4)C3=O)CC2)n1 [Example 22, 9-(4,6-dimethylpyrimidin-2-yl)-2-(3-(5-methyl-1,2,4-oxadiazol-3-yl)benzyl)-2,9-diazaspiro[5.5]undecan-1-one] | 6.12 | 7.51 | 5.88 | 6.82 | – | –
5 | N#Cc1cccc(N2CCC3(CCCN(Cc4c[nH]c5ccccc45)C3=O)CC2)n1 [Example 83, 6-(2-((1H-indol-3-yl)methyl)-1-oxo-2,9-diazaspiro[5.5]undecan-9-yl)picolinonitrile] | 5.82 | 7.89 | < 5.00 | 5.67 | – | –
6 | Cc1cc(C)nc(N2CCC3(CCCN(Cc4c[nH]c5ccc(-n6cccn6)cc45)C3=O)CC2)n1 [Example 117, 2-((5-(1H-pyrazol-1-yl)-1H-indol-3-yl)methyl)-9-(4,6-dimethylpyrimidin-2-yl)-2,9-diazaspiro[5.5]undecan-1-one] | 7.43 | 8.89 | 5.99 | 7.57 | – | –
7 | CCc1cc(C)nc(N2CCC3(CCCN(Cc4c[nH]c5ccccc45)C3=O)CC2)n1 [Example 111, 2-((1H-indol-3-yl)methyl)-9-(4-ethyl-6-methylpyrimidin-2-yl)-2,9-diazaspiro[5.5]undecan-1-one] | 6.12 | 7.96 | 6.08 | 7.36 | – | –
8 | N#Cc1ccnc(N2CCC3(CCCN(Cc4c[nH]c5ccccc45)C3=O)CC2)n1 [Example 80, 2-(2-((1H-indol-3-yl)methyl)-1-oxo-2,9-diazaspiro[5.5]undecan-9-yl)pyrimidine-4-carbonitrile] | – | 7.30 | 5.11 | 5.96 | 41% | –
9 | Cc1ccnc(N2CCC3(CCCN(Cc4c[nH]c5ccccc45)C3=O)CC2)n1 [Example 12, 2-((1H-indol-3-yl)methyl)-9-(4-methylpyrimidin-2-yl)-2,9-diazaspiro[5.5]undecan-1-one] | 5.82 | 7.52 | 5.93 | 7.25 | – | –
10 | Cc1cc(C)nc(N2CCC3(CCCN(Cc4ccccc4-c4ncco4)C3=O)CC2)n1 [Example 93, 9-(4,6-dimethylpyrimidin-2-yl)-2-(2-(oxazol-2-yl)benzyl)-2,9-diazaspiro[5.5]undecan-1-one] | 5.85 | 7.80 | 5.38 | 7.04 | – | –
11 | COc1cc(C)nc(N2CCC3(CCCN(Cc4c[nH]c5ccccc45)C3=O)CC2)n1 [Example 4, 2-((1H-indol-3-yl)methyl)-9-(4-methoxy-6-methylpyrimidin-2-yl)-2,9-diazaspiro[5.5]undecan-1-one] | 6.87 | 8.66 | 6.06 | 7.37 | – | –
12 | Cc1cnc(-c2cccc(CN3CCCC4(CCN(c5cccc(C#N)n5)CC4)C3=O)c2)o1 [Example 39, 6-(2-(3-(5-methyloxazol-2-yl)benzyl)-1-oxo-2,9-diazaspiro[5.5]undecan-9-yl)picolinonitrile] | 6.27 | 7.54 | 5.84 | 6.44 | – | –
13 | Cc1cc(C#N)nc(N2CCC3(CCCN(Cc4c[nH]c5ccccc45)C3=O)CC2)n1 [Example 75, 2-(2-((1H-indol-3-yl)methyl)-1-oxo-2,9-diazaspiro[5.5]undecan-9-yl)-6-methylpyrimidine-4-carbonitrile] | 5.83 | 8.14 | < 5.00 | 6.33 | – | –
14 | COc1cncc(N2CCC3(CCCC(=O)N3Cc3cccc4[nH]ccc34)CC2)n1 [Example 43, 1-((1H-indol-4-yl)methyl)-9-(6-methoxypyrazin-2-yl)-1,9-diazaspiro[5.5]undecan-2-one] | 6.14 | 7.77 | 5.73 | 6.21 | – | –
15 | Cc1cc(C#N)cc(N2CCC3(CCCN(Cc4cccc(-c5ncccn5)c4)C3=O)CC2)n1 [Example 28, 2-methyl-6-(1-oxo-2-(3-(pyrimidin-2-yl)benzyl)-2,9-diazaspiro[5.5]undecan-9-yl)isonicotinonitrile] | 5.96 | 7.31 | 5.29 | 6.82 | – | –
16 | COCc1cccc(-c2nn(C)nc2CN2CCCC3(CCN(c4nc(C)cc(C)n4)CC3)C2=O)c1 [Example 119, 9-(4,6-dimethylpyrimidin-2-yl)-2-((5-(3-(methoxymethyl)phenyl)-2-methyl-2H-1,2,3-triazol-4-yl)methyl)-2,9-diazaspiro[5.5]undecan-1-one] | 6.06 | 8.41 | 5.88 | – | – | 7.55
17 | Cc1cc(C)nc(N2CCC3(CCCN(Cc4nn(C)nc4Br)C3=O)CC2)n1 [Example 118, 2-((5-bromo-2-methyl-2H-1,2,3-triazol-4-yl)methyl)-9-(4,6-dimethylpyrimidin-2-yl)-2,9-diazaspiro[5.5]undecan-1-one] | 5.45 | 7.10 | 5.68 | 6.75 | – | –
18 | Cc1cc(C)nc(N2CCC3(CCCN(Cc4n[nH]c5ccccc45)C3=O)CC2)n1 [Example 45, 2-((1H-indazol-3-yl)methyl)-9-(4,6-dimethylpyrimidin-2-yl)-2,9-diazaspiro[5.5]undecan-1-one] | 6.28 | 8.00 | 5.98 | 7.19 | – | –
19 | COCc1cccc(-c2oc(C)nc2CN2CCCC3(CCN(c4nc(C)cc(C)n4)CC3)C2=O)c1 [Example 124, 9-(4,6-dimethylpyrimidin-2-yl)-2-((5-(3-(methoxymethyl)phenyl)-2-methyloxazol-4-yl)methyl)-2,9 diazaspiro[5.5]undecan-1-one] | 7.00 | 8.92 | 6.43 | 7.72 | – | –
20 | COCc1ccc2[nH]cc(CN3CCCC4(CCN(c5nc(C)cc(C)n5)CC4)C3=O)c2c1 [Example 116, 9-(4,6-dimethylpyrimidin-2-yl)-2-((5-(methoxymethyl)-1H-indol-3-yl)methyl)-2,9-diazaspiro[5.5]undecan-1-one] | 7.48 | 9.52 | 7.03 | 8.70 | – | –
